Converted amounts (≈) assume the structure as drawn.
Tests used:
[1] = target: T1, porcine pancreatic α-amylase (Sus scrofa, UniProt P00690); test: α-amylase inhibitory effect (starch, dinitrosalicylic acid, 540 nm); assay type: biochemical; conditions: for Contribution to the overall enzyme inhibitory effect of the extract, α-amylase: Contribution = [Ei/E0] × C × 100; for Inhibitory effects α-amylase (acarbose equivalents): converted into acarbose equivalents; for IC50: mean ± SD of three repeated tests, logarithmic regression
T1 construct: purchased Sigma-Aldrich Co. (St. Louis, MO, USA)
T1 sequence (P00690 16-511): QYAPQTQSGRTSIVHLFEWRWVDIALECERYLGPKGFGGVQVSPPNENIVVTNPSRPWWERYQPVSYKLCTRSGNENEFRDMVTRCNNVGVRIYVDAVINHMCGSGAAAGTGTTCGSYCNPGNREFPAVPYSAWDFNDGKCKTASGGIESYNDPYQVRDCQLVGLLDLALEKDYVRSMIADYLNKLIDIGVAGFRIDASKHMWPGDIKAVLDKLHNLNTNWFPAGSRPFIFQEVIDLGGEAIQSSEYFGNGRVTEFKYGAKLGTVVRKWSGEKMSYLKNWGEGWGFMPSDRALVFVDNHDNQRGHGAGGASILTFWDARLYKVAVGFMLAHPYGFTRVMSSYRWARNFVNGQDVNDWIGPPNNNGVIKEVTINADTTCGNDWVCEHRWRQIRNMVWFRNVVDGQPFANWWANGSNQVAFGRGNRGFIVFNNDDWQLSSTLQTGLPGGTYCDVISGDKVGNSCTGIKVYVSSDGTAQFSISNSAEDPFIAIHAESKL
Procedure: (§1) All solvents (analytical grade) were bought from Beijing Chemical Factory, and purified water was from a mili-Q system (Millipore, Billerica, MA).
After incubation for 20 min at 37 °C, 300 μL starch solution (1%) in sodium phosphate buffer (0.02 M, pH 6.9 with 6 mM NaCl) was added, and the mixture was re-incubated for 20 min, followed by addition of 0.2 mL dinitrosalicylic acid. The new mixture was then boiled for 5 min and cooled to room temperature. Cooled mixture was diluted by adding 10 mL distilled water, and absorbance was measured at 540 nm using a UV–visible spectrophotometer (Shimadzu UV-1700, Japan). […] IC50 values were calculated by the logarithmic regression analysis.

[2] = system: yeast α-glucosidase from Saccharomyces cerevisiae; test: α-glucosidase inhibitory effect (pNPG, AUC of absorbance at 405 nm); assay type: biochemical; conditions: for Inhibitory effects α-glucosidase (acarbose equivalents): converted into acarbose equivalents; for IC50 α-Glucosidase: mean ± SD of three repeated tests, logarithmic regression
Procedure: as §1
α-Glucosidase inhibitory effect was assayed as reported by Zhang et al.. […] Then, 30 μL pNPG solution (2 mM pNPG in 0.1 mM phosphate buffer) was added quickly to initiate the enzyme reaction. Absorbance was monitored at 405 nm every 15 min for 2 h using a microplate reader (Tecan infinite 200, Swiss).

α-glucosidase enzyme = system: α-glucosidase enzyme; set-up: method as in doi:10.1007/978-3-642-73461-8_2; conditions: cited from earlier work

Row | Structure (SMILES) | Contribution to the overall enzyme inhibitory effect of the extract, α-amylase [1] [%] | Inhibitory effects α-amylase (acarbose equivalents) [1] [μg acarbose/μg] | IC50 [1] [µM] | Inhibitory effects α-glucosidase (acarbose equivalents) [2] [μg acarbose/μg] | IC50 α-Glucosidase [2] [µg/mL] | inhibition at 2000 µg/mL ([1]; read-out: inhibition of α-amylase) [%] | final inhibitory effect against α-glucosidase ([2]; at 2 mg/mL) [%] | affinity exceeding that of the normal substrate, factor (α-glucosidase enzyme)
1 | O=C(O)[C@H]1O[C@@H](Oc2cc3oc(-c4ccccc4)cc(=O)c3c(O)c2O)[C@H](O)[C@@H](O)[C@@H]1O [Baicalin, baicalin] | 4.95 ± 0.13 | 1.03 ± 0.01 | 1480 | 1.68 ± 0.02 | 591.58 ± 12.21 (≈ 1330 µM) | – | – | –
2 | O=C(O)[C@H]1O[C@@H](Oc2cc3oc(-c4ccc(O)cc4)cc(=O)c3c(O)c2O)[C@H](O)[C@@H](O)[C@@H]1O [Scutellarin, scutellarin] | 14.80 ± 0.66 | 1.84 ± 0.02 | 799 | 3.18 ± 0.06 | 313.25 ± 7.28 (≈ 677 µM) | – | – | –
3 | O=c1cc(-c2ccccc2)oc2cc(O)cc(O)c12 [Chrysin, chrysin] | 6.91 ± 0.21 | 1.51 ± 0.02 | 1770 | 2.36 ± 0.03 | 422.67 ± 9.37 (≈ 1660 µM) | – | – | –
4 | O=C(O)[C@H]1O[C@@H](Oc2cc(O)c3c(=O)cc(-c4ccccc4)oc3c2)[C@H](O)[C@@H](O)[C@@H]1O [Chrysin-7-O-G, chrysin-7-O-glucuronide] | 2.63 ± 0.07 | 0.69 ± 0.01 | 2280 | 1.63 ± 0.01 | 612.13 ± 15.34 (≈ 1420 µM) | – | – | –
5 | O=c1cc(-c2ccc(O)cc2)oc2cc(O)cc(O)c12 [Apigenin] | – | – | – | 4.31 ± 0.08 | 231.13 ± 5.35 (≈ 855 µM) | – | – | –
6 | C[C@H]1O[C@H](O[C@H]2[C@H](O)[C@@H](O)[C@@H](O[C@H]3[C@H](O)[C@@H](O)C(O)O[C@@H]3CO)O[C@@H]2CO)[C@H](O)[C@@H](O)[C@@H]1N[C@H]1C=C(CO)[C@@H](O)[C@H](O)[C@H]1O (stereo partly drawn) [Acarbose, acarbose, reference compound] | – | – | – | – | 996.02 ± 21.34 (≈ 1540 µM) | 69.9 | 68.66 | 10^4–10^5
7 | O=c1cc(-c2ccccc2)oc2cc(O)c(O)c(O)c12 [Baicalein, baicalein] | 23.37 ± 0.98 | 2.07 ± 0.02 | 1240 | 3.58 ± 0.07 | 277.94 ± 6.21 (≈ 1030 µM) | – | – | –
8 | O=C(O)[C@H]1O[C@@H](Oc2cc(O)c3c(=O)cc(-c4ccc(O)cc4)oc3c2)[C@H](O)[C@@H](O)[C@@H]1O [Apigenin-7-O-G, apigenin-7-O-glucuronide] | 2.74 ± 0.09 | 1.04 ± 0.01 | 1470 | 1.83 ± 0.02 | 543.28 ± 11.41 (≈ 1220 µM) | – | – | –

From PMC6042199, “Inhibitory effects against α-glucosidase and α-amylase of the flavonoids-rich extract from Scutellaria baicalensis shoots and interpretation of structure–activity relationship of its eight flavonoids by a refined assign-score method” (Chemistry Central Journal, 2018)
